Converted amounts (≈) assume the structure as drawn. Bridge positions count the residues as written; N and C are the ends. Square brackets hold non-standard residues; d marks the D form. Peptide text beside a SMILES is read from it. * marks the point of attachment. Stearoyl = CCCCCCCCCCCCCCCCCC(=O)*; S5 = C=CCCC[C@](C)(N)C(=O)O; Hexanoyl = CCCCCC(=O)*; Aib = CC(C)(N)C(=O)O A value given as a limit tells only on which side of the number the result lay.

These results are taken from PMC7830303, “Development of Antimicrobial Stapled Peptides Based on Magainin 2 Sequence” (Molecules, 2021).

For data set [1] the following is noted: pH 7.4.
The test system of data set [2] is Pseudomonas aeruginosa. The data set is classed as cell-based. Conditions: 16 h. How it is done:
(§1) Selected bacterial strains were obtained from Biological Resource Center, NITE (NBRC; Tokyo, Japan). E. coli DH5α was purchased from BioDynamics Laboratory, Inc. (Tokyo, Japan). The antimicrobial activities of the peptides against the gram-positive S. aureus and gram-negative E. coli DH5α, P. aeruginosa, and MDRP were measured using standard broth microdilution method as previously described. Briefly, the bacteria were inoculated and grown overnight at 37 °C on agar media for other organisms i and then collected with liquid media for other organisms ii, according to Japanese Pharmacopoeia, 17th Edition. Each peptide was 2-fold serially diluted with an initial concentration of 500 μM to a final concentration of 1 μM using PBS. Then, 10 μL of the peptide solution was added to each well of a sterile 96-well plate. Subsequently, 90 μL of inoculation with 10^4 colony forming units (CFUs) per mL were added to each well, and the plate was incubated at 35 °C for 16 h.

Data set [3] deals with Staphylococcus aureus. The data set is classed as cell-based. Conditions: 16 h. On the procedure: as §1
For data set [4], the system named is Escherichia coli DH5α. The data set is classed as cell-based. The following applies: 16 h. On the procedure: as §1
The subject of data set [5] is multiple-drug resistant P. aeruginosa (MDRP). The data set is classed as cell-based, Pseudomonas aeruginosa. Conditions: multiple-drug resistant (MDRP, 16 h). How it is done: as §1
Data set [6] has as its system digestive enzymes. The following applies: cited from earlier work. The text has this:
Mag2 comprises cationic and hydrophobic amino acid residues and employs a helical structure […]. These properties are required for interaction with microbial membranes, and subsequent Mag2 insertions into membranes induce bacterial pore formation and ion efflux to exert their antimicrobial activity. The antimicrobial activity of AMPs targets the bacterial ...

On to `CCCCCCCCCCCCCCCCCC(=O)N[C@@]1(C)CCCC=CCCC[C@@](C)(C(=O)N[C@@H](CC(C)C)C(=O)N[C@@H](CCCCN)C(=O)N[C@@H](CO)C(=O)N[C@@H](C)C(=O)N[C@@H](CCCCN)C(=O)N[C@@H](CCCCN)C(=O)N[C@@H](Cc2ccccc2)C(=O)N[C@H](C(=O)N[C@@H](CCCCN)C(=O)N[C@@H](C)C(=O)N[C@@H](Cc2ccccc2)C(=O)N[C@@H](CCCCN)C(N)=O)C(C)C)NC(=O)[C@H](CCCCN)NC(=O)[C@H](CCCCN)NC(=O)[C@H]([C@@H](C)CC)NC1=O` [Peptide C18-2] (Stearoyl-[S5]IKK[S5]LKSAKKFVKAFK-NH2; staple 1-5), for which the “Solubility in the aqueous buffer solution” value in data set [1] is “poor solubility”. In addition, in data set [2], the “MIC, Gram Negative, P.a.” value is more than 50 µM. Besides, the “MIC, Gram Positive, S.a.” value in data set [3] was more than 50 µM. Further, the “MIC, Gram Negative, E.c. (DH5α)” value in data set [4] is more than 50 µM. Besides, the “MIC, Gram Negative, MDRP” value in data set [5] was more than 50 µM.
`CCCCCC(=O)N[C@@]1(C)CCCC=CCCC[C@@](C)(C(=O)N[C@@H](CC(C)C)C(=O)N[C@@H](CCCCN)C(=O)N[C@@H](CO)C(=O)N[C@@H](C)C(=O)N[C@@H](CCCCN)C(=O)N[C@@H](CCCCN)C(=O)N[C@@H](Cc2ccccc2)C(=O)N[C@H](C(=O)N[C@@H](CCCCN)C(=O)N[C@@H](C)C(=O)N[C@@H](Cc2ccccc2)C(=O)N[C@@H](CCCCN)C(N)=O)C(C)C)NC(=O)[C@H](CCCCN)NC(=O)[C@H](CCCCN)NC(=O)[C@H]([C@@H](C)CC)NC1=O` [Peptide C6-2] (Hexanoyl-[S5]IKK[S5]LKSAKKFVKAFK-NH2; staple 1-5): the “MIC, Gram Negative, P.a.” value in data set [2] came out at 3.125 µM (≈ 6.6 µg/mL). For the same compound, the “MIC, Gram Positive, S.a.” value in data set [3] was determined as 1.56 µM (≈ 3.29 µg/mL). The “MIC, Gram Negative, E.c. (DH5α)” value in data set [4] amounted to 1.56 µM (≈ 3.29 µg/mL). Besides, in data set [5], the “MIC, Gram Negative, MDRP” value is reported as 3.125 µM (≈ 6.6 µg/mL).
Take `CC[C@H](C)[C@H](NC(=O)CN)C(=O)N[C@@H](CCCCN)C(=O)N[C@@H](CCCCN)C(=O)N[C@@H](Cc1ccccc1)C(=O)N[C@@H](CC(C)C)C(=O)N[C@@H](CCCCN)C(=O)N[C@@H](CO)C(=O)NC(C)(C)C(=O)N[C@@H](CCCCN)C(=O)N[C@@H](CCCCN)C(=O)N[C@@H](Cc1ccccc1)C(=O)N[C@H](C(=O)N[C@@H](CCCCN)C(=O)NC(C)(C)C(=O)N[C@@H](Cc1ccccc1)C(=O)N[C@@H](CCCCN)C(N)=O)C(C)C` [Peptide 1, reference compound] (H-GIKKFLKS[Aib]KKFVK[Aib]FK-NH2): the “Resistance against digestive enzymes” value in data set [6] is given as “showed resistance against digestive enzymes”. In data set [2], the “MIC, Gram Negative, P.a.” value is given as 3.125 µM (≈ 6.24 µg/mL). Moreover, the “MIC, Gram Positive, S.a.” value in data set [3] is on record as 12.5 µM (≈ 24.9 µg/mL). For the same compound, in data set [4], the “MIC, Gram Negative, E.c. (DH5α)” value stood at 3.125 µM (≈ 6.24 µg/mL). The “MIC, Gram Negative, MDRP” value in data set [5] is given as 3.125 µM (≈ 6.24 µg/mL).
